The source of these data is US8071625B2, “Certain chemical entities, compositions, and methods” (Cytokinetics, Inc., priority 2006, dated 2011).

In the experiment the target is T1, crosslinked smooth muscle actomyosin (chicken gizzard smooth muscle myosin subfragment-1 crosslinked to cardiac or skeletal actin) (Gallus gallus, UniProt P10587).
T1 construct: chicken gizzard smooth muscle myosin subfragment-1; from tissue; host or cells: chicken gizzard
The experiment in a line: Lead optimization pyruvate kinase/horseradish peroxidase/pyruvate oxidase-coupled ATPase assay (compound dose response). It is filed as biochemical. As to conditions: read-out: IC50 Arithmetic Mean. In outline: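 The ATPase used chicken gizzard smooth muscle myosin S1 chemically crosslinked to cardiac or skeletal actin, titrated to a set hydrolysis rate. It was coupled via pyruvate kinase/pyruvate oxidase/HRP in 12 mM K-PIPES pH 7.00 (22 °C) with 0.15 mM ATP, 2 mM MgCl2, 100 mM KCl and 0.1 mM Amplex Red. Fluorescence was read at ex 480/em 615 nm, and IC50 came from a 4-parameter fit.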

SMILES strings stand for the structures.

For the molecule `CCc1ccc(NC(=O)OCC(C)(NC(=O)OC)C(=O)NCc2ccccc2Cl)cc1` (centres unmarked) [N-[(2-chlorophenyl)methyl]-3-[N-(4-ethylphenyl)carbamoyloxy]-2-(methoxycarbonylamino)-2-methylpropanamide], the IC50 turned out to be 4090 nM. Next, `CCc1ccc(NC(=O)NCC(C)(C)C(=O)NCc2ccccc2Cl)cc1` [N-[(2-chlorophenyl)methyl]-3-{[(4-ethylphenyl)amino]carbonylamino}-2,2-dimethylpropanamide]: 8820 nM; `CCc1ccc(NC(=O)OCCC(C)(C)C(=O)NCc2ccccc2Cl)cc1` [N-[(2-chlorophenyl)methyl]-4-[N-(4-ethylphenyl)carbamoyloxy]-2,2-dimethylbutanamide]: 235 nM; `CCc1ccc(NC(=O)OCCCC(=O)NCc2ccccc2Cl)cc1` [N-[(2-chlorophenyl)methyl]-4-[N-(4-ethylphenyl)carbamoyloxy]butanamide]: 3430 nM. The same measure for `CCc1ccc(NC(=O)NCCC(C)(C)C(=O)NCc2ccccc2Cl)cc1` [N-[(2-chlorophenyl)methyl]-4-{[N-(4-ethylphenyl)carbamoyl]amino}-2,2-dimethylbutanamide]: 4730 nM; for `CCc1ccc(NC(=O)CCC(C)(C)C(=O)NCc2ccccc2Cl)cc1` [N-[(2-chlorophenyl)methyl]-N′-(4-ethylphenyl)-2,2-dimethylpentane-1,5-diamide]: 18500 nM; for `O=C(Nc1ccc(C(F)(F)F)cc1)OCC1(C(=O)NCc2ccccc2Cl)CCN(C(=O)CO)CC1` [N-[(2-chlorophenyl)methyl][1-(2-hydroxyacetyl)-4-({N-[4-(trifluoromethyl)phenyl]carbamoyloxy}methyl)(4-piperidyl)]carboxamide]: 456 nM.

On to `CCc1ccc(NC(=O)NCC2CCCN2C(=O)NCc2ccccc2Cl)cc1` (centres unmarked) [N-[(2-chlorophenyl)methyl][2-({[(4-ethylphenyl)amino]carbonylamino}methyl)pyrrolidinyl]carboxamide], for which the half-inhibitory concentration (IC50) was determined as 2620 nM. Consider `Cc1nc(-c2ccc(NC(=O)OCC3(C(=O)NCc4ccccc4Cl)CCOCC3)cc2)cs1` [N-[(2-chlorophenyl)methyl][4-({N-[4-(2-methyl(1,3-thiazol-4-yl))phenyl]carbamoyloxy}methyl)(2H-3,4,5,6-tetrahydropyran-4-yl)]carboxamide], for which the half-inhibitory concentration (IC50) was 3920 nM. The same measure for `CC(O)c1ccc(NC(=O)OCC2(C(=O)NCc3ccccc3Cl)CCOCC2)cc1` (centres unmarked) [N-[(2-chlorophenyl)methyl][4-({N-[4-(hydroxyethyl)phenyl]carbamoyloxy}methyl)(2H-3,4,5,6-tetrahydropyran-4-yl)]carboxamide]: 5230 nM. Next, `CC(C)c1ccc(NC(=O)OCC2(C(=O)NCc3ccccc3Cl)CCOCC2)cc1` [N-[(2-chlorophenyl)methyl][4-({N-[4-(methylethyl)phenyl]carbamoyloxy}methyl)(2H-3,4,5,6-tetrahydropyran-4-yl)]carboxamide]: 498 nM; `O=C(Nc1ccc(C(F)(F)F)cc1)OCC1(C(=O)NCc2ccccc2Cl)CCOCC1` [N-[(2-chlorophenyl)methyl][4-({N-[4-(trifluoromethyl)phenyl]carbamoyloxy}methyl)(2H-3,4,5,6-tetrahydropyran-4-yl)]carboxamide]: 1140 nM; `O=C(Nc1ccc(C(F)(F)F)cc1)OCC1(C(=O)NCc2ccccc2Cl)CCNCC1` [N-[(2-chlorophenyl)methyl][4-({N-[4-(trifluoromethyl)phenyl]carbamoyloxy}methyl)(4-piperidyl)]carboxamide]: 5940 nM. The same measure for `Cc1ccc(NC(=O)OCC2(C(=O)NCc3ccccc3Cl)CCOCC2)cc1C(F)(F)F` [N-[(2-chlorophenyl)methyl][4-({N-[4-methyl-3-(trifluoromethyl)phenyl]carbamoyloxy}methyl)(2H-3,4,5,6-tetrahydropyran-4-yl)]carboxamide]: 12100 nM; for `CCc1ccc(NC(=O)N(C)CC2(C(=O)NCc3ccccc3Cl)CCN(C(=O)CO)CC2)cc1` [N-[(2-chlorophenyl)methyl][4-({[(4-ethylphenyl)amino]-N-methylcarbonylamino}methyl)-1-(2-hydroxyacetyl)(4-piperidyl)]carboxamide]: 18700 nM; for `CCc1ccc(NC(=O)NCC2(C(=O)NCc3ccccc3Cl)CCNCC2)cc1` [N-[(2-chlorophenyl)methyl][4-({[(4-ethylphenyl)amino]carbonylamino}methyl)(4-piperidyl)]carboxamide]: 18200 nM.

Take `CCc1ccc(NC(=O)NCC2(C(=O)NCc3ccccc3Cl)CCN(C(=O)CO)CC2)cc1` [N-[(2-chlorophenyl)methyl][4-({[(4-ethylphenyl)amino]carbonylamino}methyl)-1-(2-hydroxyacetyl)(4-piperidyl)]carboxamide]: the IC50 came out at 1880 nM. Turning to `CCc1ccc(NC(=O)OC2CCCN(C(=O)NCc3ccccc3Cl)C2)cc1` (centres unmarked) [N-[(2-chlorophenyl)methyl]{3-[N-(4-ethylphenyl)carbamoyloxy]piperidyl}carboxamide], the IC50 is 2260 nM. Regarding `O=C(Nc1ccc2c(c1)CCC2)OCC1(C(=O)NCc2ccccc2Cl)CCOCC1` [N-[(2-chlorophenyl)methyl]{4-[(N-indan-5-ylcarbamoyloxy)methyl](2H-3,4,5,6-tetrahydropyran-4-yl)}carboxamide], the IC50 is 361 nM. The same measure for `O=C(Nc1ccccc1)OCC1(C(=O)NCc2ccccc2Cl)CCOCC1` [N-[(2-chlorophenyl)methyl]{4-[(N-phenylcarbamoyloxy)methyl](2H-3,4,5,6-tetrahydropyran-4-yl)}carboxamide]: 15200 nM; for `CCc1ccc(CC(=O)NCC2(C(=O)NCc3ccccc3Cl)CC2)cc1` [N-[({N-[(2-chlorophenyl)methyl]carbamoyl}cyclopropyl)methyl]-2-(4-ethylphenyl)acetamide]: 18200 nM; for `CCc1ccc(NC(=O)NCC2(C(=O)NCc3ccccc3Cl)CC2)cc1` [N-[({N-[(2-chlorophenyl)methyl]carbamoyl}cyclopropyl)methyl][(4-ethylphenyl)amino]carboxamide]: 5230 nM. The same measure for `CCc1ccc(NC(=O)OCCN(C)C(=O)C(O)Cc2ccccc2C(F)(F)F)cc1` (centres unmarked) [N-{2-[N-(4-ethylphenyl)carbamoyloxy]ethyl}-2-hydroxy-N-methyl-3-[2-(trifluoromethyl)phenyl]propanamide]: 17500 nM. Consider `CCc1ccc(NC(=O)OCCN(C)C(=O)CCc2ccccc2C(F)(F)F)cc1` [N-{2-[N-(4-ethylphenyl)carbamoyloxy]ethyl}-N-methyl-3-[2-(trifluoromethyl)phenyl]propanamide], for which the half-maximal inhibitory concentration (IC50) amounted to 1210 nM.

Regarding `CCc1ccc(NC(=O)OCCNC(C)=O)cc1` [N-{2-[N-(4-ethylphenyl)carbamoyloxy]ethyl}acetamide], the half-maximal inhibitory concentration (IC50) stood at 17400 nM. As for `CCc1ccc(NC(=O)OC[C@H](C)N(C)C(=O)NCc2ccccc2Cl)cc1` [N-{(1S)-2-[N-(4-ethylphenyl)carbamoyloxy]-isopropyl}{[(2-chlorophenyl)methyl]amino}-N-methylcarboxamide], the IC50 was found to be 148 nM.

For `CCc1ccc(NC(=O)OC[C@H](C)NC(=O)NCc2ccccc2Cl)cc1` [N-{(1S)-2-[N-(4-ethylphenyl)carbamoyloxy]-isopropyl}{[(2-chlorophenyl)methyl]amino}carboxamide], the IC50 is 1630 nM. The same measure for `CCc1ccc(NC(=O)OCC[C@H](C)N(C)C(=O)NCc2ccccc2Cl)cc1` [N-{(1S)-3-[N-(4-ethylphenyl)carbamoyloxy]-1-methylpropyl}{[(2-chlorophenyl)methyl]amino}-N-methylcarboxamide]: 198 nM; for `NCC(=O)N1CCC(COC(=O)Nc2ccc(C(F)(F)F)cc2Cl)(C(=O)NCc2ccccc2Cl)CC1` [[1-(2-aminoacetyl)-4-({N-[2-chloro-4-(trifluoromethyl)phenyl]carbamoyloxy}methyl)(4-piperidyl)]-N-[(2-chlorophenyl)methyl]carboxamide]: 440 nM. Take `NCC(=O)N1CCC(COC(=O)Nc2ccc(C(F)(F)F)cc2)(C(=O)NCc2ccccc2Cl)CC1` [[1-(2-aminoacetyl)-4-({N-[4-(trifluoromethyl)phenyl]carbamoyloxy}methyl)(4-piperidyl)]-N-[(2-chlorophenyl)methyl]carboxamide]: the concentration for half-maximal inhibition (IC50) amounted to 285 nM. Next, `N#Cc1ccccc1CNC(=O)C1(COC(=O)Nc2ccc(C(F)(F)F)cc2)CCN(C(=O)CN)CC1` [[1-(2-aminoacetyl)-4-({N-[4-(trifluoromethyl)phenyl]carbamoyloxy}methyl)(4-piperidyl)]-N-[(2-cyanophenyl)methyl]carboxamide]: 3240 nM. The same measure for `Cc1ccc(NC(=O)OCC2(C(=O)NCc3ccccc3Cl)CCN(C(=O)CN)CC2)cc1C(F)(F)F` [[1-(2-aminoacetyl)-4-({N-[4-methyl-3-(trifluoromethyl)phenyl]carbamoyloxy}methyl)(4-piperidyl)]-N-[(2-chlorophenyl)methyl]carboxamide]: 1970 nM. Next, `N[C@@H](CO)C(=O)N1CCC(COC(=O)Nc2ccc(C(F)(F)F)cc2)(C(=O)NCc2ccccc2Cl)CC1` [[1-((2S)-2-amino-3-hydroxypropanoyl)-4-({N-[4-(trifluoromethyl)phenyl]carbamoyloxy}methyl)(4-piperidyl)]-N-[(2-chlorophenyl)methyl]carboxamide]: 138 nM. `CCc1ccc(NC(=O)OCCN(CCCCN)C(=O)NCc2ccccc2Cl)cc1` [[2-(N-(4-aminobutyl){[(2-chlorophenyl)methyl]amino}carbonylamino)ethoxy]-N-(4-ethylphenyl)carboxamide]: the IC50 stood at 346 nM. Take `CCc1ccc(NC(=O)OCCN(CCO)C(=O)NCc2ccccc2Cl)cc1` [[2-({[(2-chlorophenyl)methyl]amino}-N-(2-hydroxyethyl)carbonylamino)ethoxy]-N-(4-ethylphenyl)carboxamide]: the IC50 stood at 210 nM.

For orientation: IC50 means the concentration that gives 50% inhibition.
